pIC50: −log10 of the molar value.
How the values were obtained:
[1] = system: KASUMI-1 cells; assay: Kasumi cell proliferation CTG; format: cell-based; details: treated for 120 hours, CellTiter-Glo
Description: Cell culture: KASUMI-1 cells (ACC20, Leibniz-Institut DSMZ Deutsche Sammlung von Mikroorganismen und Zellkulturen GmbH) were grown in RPMI 1640 (31870-025, Gibco) supplemented with 20% fetal bovine serum (F1524, Gibco), 1 mM sodium pyruvate (11360-039, Gibco) and 2 mM Glutamax (35050-038, Gibco) in a 5% CO2 humidified incubator at 37° C.
Cell treatment and cell growth assessment: KASUMI-1 cells were seeded in ultra-low attachment 384-well culture plate (MS-9384WZ, SBio) at a final concentration of 250 000 cells/ml (35 μL/well) and treated for 120 hours with compounds inhibiting the METTL3/14 activity (10 serial semi-log dilutions, 30 μM as top concentration). Upon treatment, Kasumi1 cells were incubated for 10 min at RT with the CellTiter-Glo reagent (G7571, Promega). Measurement of the luminescence signal was performed on a microplate reader (Ensight, PerkinElmer).

[2] = biological target: METTL3/14 (Homo sapiens (Human), UniProt Q86U44); assay: METTL3/14 methyltransferase assay (RapidFire mass spectrometry, RFMS); format: biochemical; details: 5 nM METTL3/14, 0.2 μM RNA substrate, 0.5 μM SAM, 60 minutes at room temperature
Description: The enzymatic assay was established to determine IC50 values for inhibition of RNA methyltransferase activity. The enzyme used was full-length his-tagged METTL3 co-expressed with full length FLAG-tagged METTL14 in a baculovirus expression system. Enzymatic reactions were performed at room temperature in 384-well plates using a final reaction volume of 20 μL containing 20 mM TrisCl pH 7.6, 1 mM DTT, 0.01% Tween-20. 5 nM final concentration of METTL3/14 was pre-incubated with various compound concentrations for 10 minutes, followed by addition of 0.2 μM final concentration synthetic RNA substrate (5′P-[…]-3′) and 0.5 μM final concentration S-adenosyl-methionine (SAM). The reaction was incubated for a further 60 minutes at room temperature, and then quenched by the addition of 40 μL 7.5% TCA with two internal product standards (D4-SAH and 13C10-SAH). After termination, plates were sealed, centrifuged and stored at 4° C. until analysis.
RNA methyltransferase activity was measured label free using the RapidFire™ mass spectrometry (RF/MS) platform. Stopped and stable assay plates were analyzed on the Agilent RF300 integrated autosampler/solid-phase extraction (SPE) system coupled to an ABSciex 4000 mass spectrometer for the generation of the product S-adenosyl homocysteine (SAH) and normalized to the ratio of signal of the two internal product standards, respectively. Solvent A was water containing 0.1% (v/v) TCA. Solvent B was acetonitrile/0.1% ammonium acetate (8:2, v/v). More specifically, plates were centrifuged at 4350 rpm for 10 min, samples were aspirated under vacuum for 600 ms, then loaded onto a C18 solid-phase extraction cartridge and washed for 3 s with solvent A at a flow rate of 1.5 mL/min. Retained product and internal standards were eluted with solvent B at a flow rate of 1 mL/min for 3 s and finally the cartridge was re-equilibrated with solvent A for 500 ms. The mass transition for the product (SAH) was 384.9/135.9 Da. Transitions of the two internal product standards (IS1: D4-SAH and IS2: 13C10-SAH) were 389.1/135.8 Da and 395.0/134.2 Da, respectively. Ratios of SAH/IS1 and SAH/IS2 were used for normalization of matrix effects. IC50 values were calculated based on dilution series of individual compounds. Potency of a compound was measured at varied inhibitor concentrations and normalized to control wells without RNA substrate and without inhibition (DMSO only).

[3] = system: Caov-3 cells; assay: Caov3 cell proliferation CTG; format: cell-based; details: Homo sapiens, treated for 120 hours, CellTiter-Glo
Description: Cell treatment and cell growth assessment: 18 hours post-seeding in white 384-Viewplate (6007480, PerkinElmer) at 1500 cells/well, Caov3 cells were treated for 120 hours with compounds inhibiting the METTL3/14 activity (10 serial semi-log dilutions, 30 μM as top concentration). Upon treatment, Coav-3 cells were incubated for 10 min at RT with the CellTiter-Glo reagent (G7571, Promega). Measurement of the luminescence signal was performed on a microplate reader (Ensight, PerkinElmer).

METTL3/14, sequence (Q86U44 whole entry): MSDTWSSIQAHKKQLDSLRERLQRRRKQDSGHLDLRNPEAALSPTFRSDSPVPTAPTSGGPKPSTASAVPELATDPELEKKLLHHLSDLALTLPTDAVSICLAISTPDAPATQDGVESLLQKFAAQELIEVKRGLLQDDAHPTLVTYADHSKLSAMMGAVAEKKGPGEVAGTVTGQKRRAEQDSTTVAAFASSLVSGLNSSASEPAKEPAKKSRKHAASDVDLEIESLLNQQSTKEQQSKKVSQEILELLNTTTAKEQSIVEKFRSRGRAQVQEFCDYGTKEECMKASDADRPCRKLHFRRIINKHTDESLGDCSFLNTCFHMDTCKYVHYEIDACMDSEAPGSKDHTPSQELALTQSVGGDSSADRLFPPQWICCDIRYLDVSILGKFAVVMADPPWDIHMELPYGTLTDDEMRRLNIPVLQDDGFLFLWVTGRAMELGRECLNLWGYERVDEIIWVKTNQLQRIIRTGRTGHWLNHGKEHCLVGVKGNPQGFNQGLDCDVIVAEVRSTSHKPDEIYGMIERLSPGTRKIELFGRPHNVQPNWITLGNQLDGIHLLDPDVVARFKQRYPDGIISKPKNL
METTL3/14, sequence (Q9HCE5 whole entry partner): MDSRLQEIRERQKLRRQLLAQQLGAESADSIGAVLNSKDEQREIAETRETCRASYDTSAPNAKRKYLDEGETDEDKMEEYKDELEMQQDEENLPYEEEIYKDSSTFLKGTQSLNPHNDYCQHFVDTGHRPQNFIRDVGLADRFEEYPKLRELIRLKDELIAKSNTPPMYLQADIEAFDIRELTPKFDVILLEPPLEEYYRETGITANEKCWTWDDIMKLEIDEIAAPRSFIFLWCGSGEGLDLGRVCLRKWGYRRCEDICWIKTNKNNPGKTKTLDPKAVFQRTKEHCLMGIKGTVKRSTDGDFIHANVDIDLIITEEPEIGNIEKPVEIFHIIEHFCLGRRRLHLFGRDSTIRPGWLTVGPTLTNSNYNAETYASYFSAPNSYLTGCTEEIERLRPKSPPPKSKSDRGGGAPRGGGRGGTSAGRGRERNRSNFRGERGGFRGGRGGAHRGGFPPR

SMILES	pIC50 ([1]; Homo sapiens, Kasumi 1, 120 h)	pIC50 [2]	pIC50 [3]	pIC50 [1]
Nc1ncnc2c1c(Br)cn2[C@@H]1O[C@H](/C=C/CCCNCC2CCC2)[C@@H](O)[C@H]1O [Example 2, (2R,3R,4S,5R)-2-{4-amino-5-bromo-7H-pyrrolo[2,3-d]pyrimidin-7-yl}-5-[(1E)-5-[(cyclobutylmethyl)amino]pent-1-en-1-yl]oxolane-3,4-diol]	5.14	7.37	5.42	
Nc1ncnc2c1c(Br)cn2[C@@H]1O[C@H](/C=C/CCCNCc2ccccc2)[C@@H](O)[C@H]1O [Example 5, (2R,3R,4S,5R)-2-{4-amino-5-bromo-7H-pyrrolo[2,3-d]pyrimidin-7-yl}-5-[(1E)-5-(benzylamino)pent-1-en-1-yl]oxolane-3,4-diol]		6.71	6.48	6.44
Nc1ncnc2c1c(Br)cn2[C@@H]1O[C@H](/C=C/CCCNCC23CC(F)(C2)C3)[C@@H](O)[C@H]1O [Example 6]	5.80		6.40	
Nc1ncnc2c1c(Br)cn2[C@@H]1O[C@H](CC/C=C/CNCc2ccccc2)[C@@H](O)[C@H]1O [Example 9, (2R,3R,4S,5R)-2-(4-amino-5-bromo-7H-pyrrolo[2,3-d]pyrimidin-7-yl)-5-((E)-5-(benzylamino)pent-3-en-1-yl)tetrahydrofuran-3,4-diol]	5.34	6.91	5.24	
Nc1ncnc2c1c(Br)cn2[C@@H]1C[C@H](c2ccc(CNCC3CCC3)cc2)[C@@H](O)[C@H]1O [Example 10, (1R,2S,3R,5R)-3-(4-amino-5-bromo-7H-pyrrolo[2,3-d]pyrimidin-7-yl)-5-(4-(((cyclobutylmethyl)amino)methyl)phenyl)cyclopentane-1,2-diol]	5.36	6.82	5.19	
Nc1ncnc2c1c(Br)cn2[C@@H]1C[C@H](c2ccc3cc(CNCC45CC(F)(C4)C5)[nH]c3c2)[C@@H](O)[C@H]1O [Example 11, (1R,2S,3R,5R)-3-{4-amino-5-bromo-7H-pyrrolo[2,3-d]pyrimidin-7-yl}-5-(2-{[({3-fluorobicyclo[1.1.1]pentan-1-yl}methyl)amino]methyl}-1H-indol-6-yl)cyclopentane-1,2-diol]	6.02		6.60	
Nc1ncnc2c1c(Br)cn2[C@@H]1C[C@H](c2ccc(CCNCC34CC(F)(C3)C4)cc2)[C@@H](O)[C@H]1O [Example 12, (1R,2S,3R,5R)-3-{4-amino-5-bromo-7H-pyrrolo[2,3-d]pyrimidin-7-yl}-5-(4-{2-[({3-fluorobicyclo[1.1.1]pentan-1-yl}methyl)amino]ethyl}phenyl)cyclopentane-1,2-diol]	5.31	7.33	5.08	
Nc1ncnc2c1c(Br)cn2[C@@H]1O[C@H](/C=C/CCCN2CCC3(CCC3)C2)[C@@H](O)[C@H]1O [Example 21]	5.31	7.62	5.34	
Nc1ncnc2c1c(Br)cn2[C@H]1C[C@H](O)[C@@H](/C=C/CCCNCC23CC(F)(C2)C3)O1 [Example 22, (2R,3S,5R)-5-(4-amino-5-bromo-pyrrolo[2,3-d]pyrimidin-7-yl)-2-[(E)-5-[(3-fluoro-1-bicyclo[1.1.1]pentanyl)methylamino]pent-1-enyl]tetrahydrofuran-3-ol]	5.37	7.89	5.54	
Nc1ncnc2c1c(F)cn2[C@@H]1C[C@H](c2ccc3cc(CNCC45CC(F)(C4)C5)[nH]c3c2)[C@@H](O)[C@H]1O [Example 29, (1R,2S,3R,5R)-3-{4-amino-5-fluoro-7H-pyrrolo[2,3-d]pyrimidin-7-yl}-5-(2-{[{{3-fluorobicyclo[1.1.1]pentan-1-yl}methyl)amino]methyl}-1H-indol-6-yl)cyclopentane-1,2-diol]	5.54	8.21	5.81	
Nc1ncnc2c1c(Cl)cn2[C@@H]1C[C@H](c2ccc3cc(CNCC45CC(F)(C4)C5)[nH]c3c2)[C@@H](O)[C@H]1O [Example 30, (1R,2S,3R,5R)-3-{4-amino-5-chloro-7H-pyrrolo[2,3-d]pyrimidin-7-yl}-5-(2-{[({3-fluorobicyclo[1.1.1]pentan-1-yl}methyl)amino]methyl}-1H-indol-6-yl)cyclopentane-1,2-diol]	5.89	8.21	6.25	
Nc1ncnc2c1c(Br)cn2[C@@H]1C[C@H](c2ccc3[nH]c(CNCC45CC(F)(C4)C5)cc3c2)[C@@H](O)[C@H]1O [Example 31, (1R,2S,3R,5R)-3-{4-amino-5-bromo-7H-pyrrolo[2,3-d]pyrimidin-7-yl}-5-(2-{[{{3-fluorobicyclo[1.1.1]pentan-1-yl}methyl)amino]methyl}-1H-indol-5-yl)cyclopentane-1,2-diol]	5.71	8.08	5.58	
Nc1ncnc2c1c(Br)cn2[C@@H]1C[C@H](c2ccc3cc(CN4CCC5(CCC5)C4)[nH]c3c2)[C@@H](O)[C@H]1O [Example 32, (1R,2S,3R,5R)-3-{4-amino-5-bromo-7H-pyrrolo[2,3-d]pyrimidin-7-yl}-5-[2-({6-azaspiro[3.4]octan-6-yl}methyl)-1H-indol-6-yl]cyclopentane-1,2-diol]	5.91	8.21	6.26	
Nc1ncnc2c1ccn2[C@@H]1C[C@H](c2ccc3cc(CN4CCC5(CCC5)C4)[nH]c3c2)[C@@H](O)[C@H]1O [Example 33, (1R,2S,3R,5R)-3-{4-amino-7H-pyrrolo[2,3-d]pyrimidin-7-yl}-5-[2-({6-azaspiro[3.4]octan-6-yl}methyl)-1H-indol-6-yl]cyclopentane-1,2-diol]	5.86	8.21	6.56	
Nc1ncnc2c1c(Br)cn2[C@@H]1C[C@H](c2ccc(CNCC34CC(F)(C3)C4)cc2)[C@@H](O)[C@H]1O [Example 34, (1R,2S,3R,5R)-3-{4-amino-5-bromo-7H-pyrrolo[2,3-d]pyrimidin-7-yl}-5-(4-{[({3-fluorobicyclo[1.1.1]pentan-1-yl}methyl)amino]methyl}phenyl)cyclopentane-1,2-diol]	5.62	8.04	5.72	
Nc1ncnc2c1c(Br)cn2[C@@H]1C[C@H](c2ccc(CN3CCC4(CCC4)C3)cc2)[C@@H](O)[C@H]1O [Example 35, (1R,2S,3R,5R)-3-{4-amino-5-bromo-7H-pyrrolo[2,3-d]pyrimidin-7-yl}-5-[4-({6-azaspiro[3.4]octan-6-yl}methyl)phenyl]cyclopentane-1,2-diol]	5.38	7.20	5.34	
CC1(C)CCN(Cc2ccc([C@H]3C[C@@H](n4cc(Br)c5c(N)ncnc54)[C@H](O)[C@@H]3O)cc2)CC1 [Example 36, (1R,2S,3R,5R)-3-{4-amino-5-bromo-7H-pyrrolo[2,3-d]pyrimidin-7-yl}-5-{4-[(4,4-dimethylpiperidin-1-yl)methyl]phenyl}cyclopentane-1,2-diol]	5.28	6.99	5.11	
Nc1ncnc2c1c(Br)cn2[C@@H]1C[C@H](c2cccc(CCNCC34CC(F)(C3)C4)c2)[C@@H](O)[C@H]1O [Example 37, (1R,2S,3R,5R)-3-{4-amino-5-bromo-7H-pyrrolo[2,3-d]pyrimidin-7-yl}-5-(3-{2-[{{3-fluorobicyclo[1.1.1]pentan-1-yl}methyl)amino]ethyl}phenyl)cyclopentane-1,2-diol]	5.67	6.93	5.49	
